In article PMC9317628, “Secondary Metabolites in the Dendrobium heterocarpum Methanolic Extract and Their Impacts on Viability and Lipid Storage of 3T3-L1 Pre-Adipocytes” (Nutrients, 2022):

Tests used:
3T3-L1 cells [1] = assay: Oil Red O staining, cellular lipid content in differentiating cells; type: cell-based, mouse; conditions: for effect on cellular lipid storage (percentage of Oil Red O-stained cells): 5 µM, 48 h exposure, staining on day 8, vs untreated vehicle control; for IC50: Mus musculus, 3T3-L1, based on percentage of Oil Red O-stained, read-out: IC50 to suppress cellular lipid accumulation
Experimental: The mouse embryonic 3T3-L1 pre-adipocytes purchased from the American Type Culture Collection (ATCC, Manassas, VA, USA) were cultured at 37 °C with a 5% CO2 stream in a complete Dulbecco’s modified Eagle medium (DMEM) (Gibco, Gaithersburg, MA, USA) that contained 10% fetal bovine serum (FBS; Gibco, Gaithersburg, MA, USA), 1000 units mL^−1 of penicillin/streptomycin (Gibco, Gaithersburg, MA, USA), and 2 mM of L-glutamine (Gibco, Gaithersburg, MA, USA). For adipocyte differentiation, 3T3-L1 cells at 100% confluent were incubated at 37 °C with a 5% CO2 stream for two days in a differentiation medium made of the complete DMEM plus 0.5 mM isobutyl methylxanthine (IBMX) (Sigma Aldrich, St. Louis, MO, USA), 1 µM of dexamethasone (Sigma Aldrich, St. Louis, MO, USA), and 5 µg mL^−1 of insulin (Sigma Aldrich, St. Louis, MO, USA). Then, the medium was replaced with an insulin medium made of the complete DMEM plus 5 µg mL^−1 of insulin, and cells were continuously incubated under the same conditions for another two days. The medium was replaced with the complete DMEM every two days to maintain adipocyte development. Cellular lipid droplets developed along the differentiation program could be observed under a light microscope (Nikon Ts2, Tokyo, Japan). Oil Red O staining was performed to determine the content of lipid droplets in differentiating 3T3-L1 cells. The adipocyte differentiation program as described previously was established, and cells were exposed to each tested compound at 5 µM for 48 h after obtaining 100% confluence. Cells exposed to 0.5% (v/v) DMSO and 20 µM of oxyresveratrol served as untreated vehicle and positive controls, respectively. Tested compounds were diluted in the differentiation medium before testing, in which the concentrations of DMSO were restricted to be lower than 0.5% (v/v). After the treatments, differentiating 3T3-L1 cells on day 8 of the differentiation program were fixed with 10% formalin and incubated with the Oil Red O staining solution (Sigma Aldrich, St. Louis, MO, USA) at an ambient temperature for 1 h. Cells were then washed thrice with distilled water and 60% (v/v) isopropanol (Sigma Aldrich, St. Louis, MO, USA) to remove the excess dye. Oil Red O-stained 3T3-L1 cells were observed using a light microscope (Nikon Ts2, Tokyo, Japan). The cellular Oil Red O content was extracted using absolute isopropanol and measured for absorbance at a 510 nm wavelength by the microplate reader. The percentage of Oil Red O-stained cells was calculated after normalization with the total cellular protein content determined by a BCA protein assay kit (Thermo Scientific, Rockford, CA, USA).

3T3-L1 pre-adipocytes = assay: MTT cytotoxicity assay (cell viability); type: cell-based, mouse; conditions: 48 h; for non-cytotoxic concentrations: no significant difference from vehicle control; for cytotoxic effect (cell viability vs untreated vehicle control): 5 µM (lowest tested concentration)
Experimental: (§1) The mouse embryonic 3T3-L1 pre-adipocytes purchased from the American Type Culture Collection (ATCC, Manassas, VA, USA) were cultured at 37 °C with a 5% CO2 stream in a complete Dulbecco’s modified Eagle medium (DMEM) (Gibco, Gaithersburg, MA, USA) that contained 10% fetal bovine serum (FBS; Gibco, Gaithersburg, MA, USA), 1000 units mL^−1 of penicillin/streptomycin (Gibco, Gaithersburg, MA, USA), and 2 mM of L-glutamine (Gibco, Gaithersburg, MA, USA). For adipocyte differentiation, 3T3-L1 cells at 100% confluent were incubated at 37 °C with a 5% CO2 stream for two days in a differentiation medium made of the complete DMEM plus 0.5 mM isobutyl methylxanthine (IBMX) (Sigma Aldrich, St. Louis, MO, USA), 1 µM of dexamethasone (Sigma Aldrich, St. Louis, MO, USA), and 5 µg mL^−1 of insulin (Sigma Aldrich, St. Louis, MO, USA). Then, the medium was replaced with an insulin medium made of the complete DMEM plus 5 µg mL^−1 of insulin, and cells were continuously incubated under the same conditions for another two days. The medium was replaced with the complete DMEM every two days to maintain adipocyte development. Cellular lipid droplets developed along the differentiation program could be observed under a light microscope (Nikon Ts2, Tokyo, Japan). The cytotoxic effect of elucidated compounds from D. heterocarpum on 3T3-L1 cell viability was evaluated using 3-(4,5-dimethylthiazol-2-yl)-2,5-diphenyl tetrazolium bromide (MTT) (Sigma Aldrich, St. Louis, MO, USA) assay. 3T3-L1 cells were seeded in 96-well plates at a density of 2 × 10^3 cells/well and incubated at 37 °C with a 5% CO2 stream until reaching 100% confluent. Cells were then exposed to varying concentrations (5, 10, and 20 µM) of the tested compounds in the complete DMEM for 48 h. Before testing, every tested compound resuspended in absolute dimethyl sulfoxide (DMSO) (Sigma Aldrich, St. Louis, MO, USA) was prepared by dilution using the complete DMEM. The concentration of DMSO in each treatment was limited to <0.5% (v/v). DMSO at 0.5% (v/v) and 20 µM of oxyresveratrol (a known compound with the ability to suppress adipocyte differentiation) were included in the tests as untreated vehicle and positive controls, respectively. After exposure for 48 h, the medium was removed, and the MTT solution (0.45 mg mL^−1), prepared by dissolving in phosphate-buffered saline (PBS), was added. The assay was incubated at 37 °C with a 5% CO2 stream for 3 h. Then, the MTT solution was replaced with absolute DMSO to dissolve the purple formazan crystal that formed, which was further measured for absorbance at a 570 nm wavelength using a microplate reader (Anthros, Durham, NC, USA). The relative absorbance value between treated cells to vehicle control cells was presented as the percentage of cell viability. Non-cytotoxic concentrations of a tested compound were defined based on no significant difference in the percentages of cell viability derived from the treatments and the vehicle control.

3T3-L1 cells [2] = assay: Nuclear staining with Hoechst 33342 / propidium iodide (cell death); type: cell-based; conditions: 20 µM, 48 h, Hoechst 33342/PI
Experimental: 3T3-L1 cell death after exposure to varying concentrations of the tested compounds was also determined by the nuclear staining technique. Hoechst 33342 (Sigma Aldrich, St. Louis, MO, USA) and propidium iodide (PI) (Sigma Aldrich, St. Louis, MO, USA) were used as staining dyes. After 48 h of treatment, the assay medium was removed from 3T3-L1 cells and replaced with PBS containing 2 µg mL^−1 of Hoechst 33342 and 1 µg mL^−1 of PI. Cells were stained for 30 min at 37 °C with a 5% CO2 stream and observed/photographed under a fluorescence microscope (Olympus IX51 with DP70, Tokyo, Japan). Bright cells with a disseminated nucleus under both blue and red filters were referred to as dead cells.

PPARγ = assay: Western blot, PPARγ expression at early adipocyte differentiation; type: cell-based, mouse; conditions: 10 µM, 48 h in differentiation medium
Experimental: (§2) The impacts of a tested compound on the expression and activation of proteins that are linked to cellular responses in the early phase of adipocyte differentiation were assessed using Western blot analysis. The list of proteins analyzed in this study included adipogenic regulators (i.e., PPARγ and C/EBPα) and the MAPK signaling pathways-mediated proteins (i.e., JNK, ERK, and p38). The expression or activation of each target protein was normalized with β-Actin as a reference cellular protein. The activation of JNK, ERK, and p38 was assessed using the phosphorylation ratio between those phosphorylated (i.e., p-ERK, p-JNK, and p-p38) and the sum of those phosphorylated and non-phosphorylated.
(§3) 3T3-L1 pre-adipocytes at 100% confluence were exposed for 48 h to a tested compound at non-cytotoxic concentrations prepared in the differentiation medium. Cells were then washed with PBS (pH 7.4) and used for protein extraction by incubation in an ice-cold radio-immunoprecipitation assay buffer (Thermo Scientific, Rockford, CA, USA) supplemented with the protease inhibitor cocktail (Roche Applied Science, Indianapolis, IN, USA) for 45 min. Derived cell lysates were centrifuged at 4 °C, 6440× g for 15 min, and the supernatant was collected. The BCA protein assay kit was conducted to quantify the total protein content in the supernatant. […]

C/EBPα = assay: Western blot, C/EBPα expression at early adipocyte differentiation; type: cell-based, mouse; conditions: 10 µM, 48 h in differentiation medium
Experimental: as §2, §3

JNK = assay: Western blot, JNK phosphorylation ratio; type: cell-based, mouse; conditions: 48 h, vs untreated vehicle control
Experimental: as §2, §3

ERK = assay: Western blot, ERK phosphorylation ratio; type: cell-based, mouse; conditions: 48 h, vs untreated vehicle control
Experimental: as §2, §3

p38 = assay: Western blot, p38 phosphorylation ratio; type: cell-based, mouse; conditions: 48 h, vs untreated vehicle control
Experimental: as §2, §3

[3] = test system: HeLa cervical cancer cell line; set-up: method as in doi:10.1177/1934578X20908678; conditions: cited from earlier work
[4] = MTT cytotoxicity assay (cell viability); type: cell-based, mouse; conditions: mouse, 3T3-L1 pre-adipocytes, 20 µM, relative to vehicle control, read-out: percentage of cell viability
Experimental: as §1

α-glucosidase = conditions: cited from earlier work
pancreatic lipase = conditions: cited from earlier work
3T3L-1 cells = test system: 3T3L-1 cells; set-up: method as in PMID 32571087; conditions: cited from earlier work

COc1ccc(CCc2cc(OC)c(O)c(OC)c2)cc1 [Compound 1, amoenylin]
effect on cellular lipid storage (percentage of Oil Red O-stained cells) (3T3-L1 cells [1]): significantly decrease

COC(=O)CCc1ccc(O)cc1 [Compound 2, methyl 3-(4-hydroxyphenyl) propionate]
non-cytotoxic concentrations (3T3-L1 pre-adipocytes): ≤ 10 µM
effect on cellular lipid storage (percentage of Oil Red O-stained cells) (3T3-L1 cells [1]): significantly decrease

COc1ccc(CCc2cc(O)c(O)c(OC)c2)cc1 [Compound 3, 3,4-dihydroxy-5,4′-dimethoxybibenzyl]
non-cytotoxic concentrations (3T3-L1 pre-adipocytes): ≤ 10 µM
dead cells by nuclear staining (3T3-L1 cells [2]): some dead cells
effect on cellular lipid storage (percentage of Oil Red O-stained cells) (3T3-L1 cells [1]): significantly decrease
IC50 (3T3-L1 cells [1]): 6.3 ± 0.1 µM
IC50 fold lower than oxyresveratrol (3T3-L1 cells [1]; lipid accumulation IC50 ratio to positive control): approximately 3 fold
PPARγ expression relative to β-Actin (PPARγ): maximum suppression
C/EBPα expression relative to β-Actin (C/EBPα): maximum suppression
JNK phosphorylation (JNK; 2.5 µM): did not affect
JNK phosphorylation (JNK; 10 µM): significantly suppressed
ERK phosphorylation (ERK; 2.5 µM): did not affect
ERK phosphorylation (ERK; 10 µM): significantly suppressed
p38 phosphorylation (p38; 2.5 µM): did not affect
p38 phosphorylation (p38; 10 µM): significantly suppressed
cytotoxic effect on HeLa cells [3]: did not show a cytotoxic effect

COc1ccc(CCc2cc(OC)c3c(c2)O[C@@H](c2cc(OC)c(O)c(OC)c2)[C@H](CO)O3)cc1 [Compound 4, dendrocandin B]
viability at 48 h, 20 µM [4]: 61.3 ± 1.1%
cytotoxic effect (cell viability vs untreated vehicle control) (3T3-L1 pre-adipocytes): significant decrease in cell viability
effect on cellular lipid storage (percentage of Oil Red O-stained cells) (3T3-L1 cells [1]): absence of its bioactivity to suppress lipid accumulation
α-glucosidase activity inhibition (α-glucosidase): did not hamper
pancreatic lipase activity inhibition (pancreatic lipase): did not hamper

COc1ccc(CCc2cc(OC)c(O)c3c2C(Cc2ccc(OC)cc2)c2cc(O)c(O)c(OC)c2O3)cc1 (stereo not shown) [Compound 5, dendrofalconerol A]
viability at 48 h, 20 µM [4]: 61.3 ± 1.1%
cytotoxic effect (cell viability vs untreated vehicle control) (3T3-L1 pre-adipocytes): significant decrease in cell viability
effect on cellular lipid storage (percentage of Oil Red O-stained cells) (3T3-L1 cells [1]): did not exhibit the inhibitory effect on lipid accumulation
α-glucosidase activity inhibition (α-glucosidase): strong capability to inhibit
pancreatic lipase activity inhibition (pancreatic lipase): strong capability to inhibit

COc1cc([C@H]2OC[C@H]3[C@@H]2CO[C@@H]3c2cc(OC)c(O)c(OC)c2)cc(OC)c1O [Compound 6, syringaresinol]
non-cytotoxic concentrations (3T3-L1 pre-adipocytes): ≤ 10 µM
effect on cellular lipid storage (percentage of Oil Red O-stained cells) (3T3-L1 cells [1]): significantly decrease
promotion of glucose uptake (3T3L-1 cells): no function to promote glucose uptake

Oc1cc(O)cc(/C=C/c2ccc(O)cc2O)c1 [oxyresveratrol, reference compound]
IC50 (3T3-L1 cells [1]): 20.2 ± 1.2 µM
